Assay results published in patent US7915405B2, “2,4-disubstituted-5-aminocarbonyl-1,3-thiazole derivatives for therapeutic agent of antiinflammatory disease, method thereof for preparation, therapeutic agent for antiinflammatory disease induced by SPC activity containing the same” (Korea Research Institute of Chemical Technology, priority 2008, dated 2011).

Tests used:
NIH 3T3 cells = assay: Control of cellular division and proliferation induced by SPC ([3H]-thimidine incorporation); type: cell-based
Experimental: Treatment of cells with sphingosylphosphorylcholine (SPC) can induce excessive cellular division and proliferation, thus causing pathological skin conditions [Desai, Biochem. Biophys. […] Accordingly, the compounds prepared in the above Examples were tested for an effect on cellular division and proliferation induced by SPC.
First, 1×10^5 (usually 1×10^4˜10^5) NIH 3T3 cells (American Type Culture Collection, Manassas, Va., USA) were dispensed and cultured on a culture plate, and then cultured in RPMI medium containing no fetal bovine serum for 24 hours to achieve serum starvation. The cells were treated with the compounds prepared in the above Examples, and FTY720, a sphingosine-1-phosphate (S1P) agonist, at concentrations of 0.001 μM, 0.01 μM, 0.1 μM and 1 μM, and were incubated for 30 minutes. Then, SPC (Biomol, Plymouth Meeting, Pa., USA) was added thereto at a concentration of 7 μM, and the cells were incubated at 37° C. for 24 hours. […] Proliferation %=(group treated with test drug−group not treated with SPC)/(group treated with SPC alone−group not treated with SPC)×100 [Equation 1]

[1] = test system: human umbilical vein endothelial cells (HUVECs); assay: Inhibitory effect on chemotactic cell migration induced by SPC (Boyden chamber analysis); type: cell-based; details: HUVEC
Excerpt: Recently, it was reported that SPC plays an important role in chemotactic cell migration, similar to vascular endothelial cell growth (VEGF) [Boguslawski et al, Biochem Biophys Res Commun., 2000, 272, 603-609]. The phenomenon in which cells migrate in a living body by special cytokines or kemokines is a key step in a process, such as migration of immune cells to sites of inflammation, or angiogenesis caused by endothelial cells. Accordingly, the effect of the compounds prepared in the above Examples on chemotactic cell migration induced by SPC was tested by Boyden chamber analysis.
First, a 25×80 mm polycarbonate membrane (Neuro Probe, Inc.) having 8 μm pores was overnight coated by immersion in a solution containing 0.01% gelatin and 0.1% acetic acid solution and was naturally dried at room temperature.
Meanwhile, human umbilical vein endothelial cells (HUVECs) cultured in complete EBM-2 medium containing 2% fetal bovine serum were incubated in EBM-2 medium (Cambrex, Catalog No. CC-3121) containing no fetal bovine serum for 4 hours to achieve serum starvation, and then the cells were harvested with trypsin/EDTA solution. The HUVEC cells were suspended in EBM-2 medium containing 0.1% fetal bovine serum. Then, the cells were dispensed in a silicon-coated Eppendorf tube, the compound of Example 1-31 as a test drug was added to the cells in amounts of 0.1, 1 and 10 μg/ml, and the cells were treated with the compound at 37° C. for 30 minutes. 27 μL of EBM-2 medium containing 10 μM SPC or EBM-2 medium containing no SPC was dispensed in each well of the lower chamber of the Boyden chamber, and a gelatin-coated membrane was placed in the lower chamber, such that the glossy surface of the membrane was faced downward. A gasket was placed on the membrane, and then the upper chamber was assembled. 5×10^4 (56 μl) HUVEC cells treated with the drug were dispensed in each well of the upper chamber and incubated in a CO2 incubator at 37° C. for 8 hours. The membrane was separated, stained with Diff-Quik dye (Sysmex Corporation), washed with deionized water, and then attached to a slide glass, such that the glossy surface was faced downward. The cells attached onto the membrane were carefully wiped with kimwipes or cotton swabs, and then each well was photographed in five fields (200× magnification), and the cells were counted. Inhibition of chemotactic cell migration was calculated according to the following equation 2, and the results are shown in Table 3 below. Inhibition %=(group treated with SPC alone−group treated with test drug)/(group treated with SPC alone−group not treated with SPC)×100 [Equation 2]

[2] = test system: TPA-induced inflammation model; assay: Control of inflammatory reaction in mouse TPA-induced inflammation model (ear weight and MPO activity); type: in vivo; details: ICR mice
Experimental: In order to examine an inhibitory effect on inflammatory reactions, the following test was carried out using tetradecanoyl phorbol acetate (hereinafter referred to as “TPA”)-induced inflammation model.
The TPA-induced inflammation model was a test method which has been widely used to test inflammatory reaction mechanisms and the effect of inhibitory substances [De Young L M et al., Agents and Actions, 1989, 26, 335-341]. When TPA which is a substance causing an inflammatory reaction is applied to the ear of a test subject, erythema and edema occur. Such inflammatory reactions are measurable through the increase in the activity of myeloperoxidase (MPO) which is essential for bacterial invasion into white blood cells.
Forty 6-week-old ICR mice were prepared, and 20 μl of a TPA solution (Sigma Aldrich Korea) obtained by dissolving TPA in acetone at a concentration of 125 μg/ml was applied to the left ear of each animal. At 1 hour after the application of TPA, 20 μl of each of acetone, the compounds of Examples dissolved in acetone at a concentration of 0.3%, and hydrocortisone (Sigma Aldrich Korea) dissolved in acetone at a concentration of 0.3% was applied to the TPA-applied site, and at 6 hours after the application of TPA, it was applied again to the same site in the same amount (20 μl). At 24 hours after the application of TPA, the mice were sacrificed by cervical dislocation, and the left ear was collected in a given width and measured for weight and MPO activity. Inhibition % of inflammatory reactions was calculated according to the following equation 3, and the results are shown in Table 4 below. Inhibition %=(group treated with TPA alone−group treated with test drug)/(group treated with TPA alone−group not treated with TPA)×100 [Equation 3]

COc1ccccc1N1CCN(c2nc(NC(=O)C(C)(C)C)c(C(=O)N3CCCCC3)s2)CC1 [Example 1-31, N-{2-[4-(2-methoxyphenyl)-piperazin-1-yl]-5-(piperidine-1-carbonyl)thiazol-4-yl}pivalamide]
IC50 (NIH 3T3 cells; Mus musculus, NIH3T3, serum starved, compound 0.001-1 μM 30 minutes, then SPC 7 μM, 24 hours, read-out: antagonistic effect on SPC IC50): 5.42 nM | inhibition of cellular division and proliferation induced by SPC (in words) (NIH 3T3 cells; SPC 7 μM): dose-dependently inhibited | inhibition of chemotactic cell migration caused by SPC (in words) ([1]; Boyden chamber): strongly inhibited | inhibition at 0.1 µg/mL ([1]; Homo sapiens, 0.1 μg/ml, 10 μM SPC, 8 hours): 44% | inhibition at 1 µg/mL ([1]; Homo sapiens, 1 μg/ml, 10 μM SPC, 8 hours): 58% | inhibition at 10 µg/mL ([1]; Homo sapiens, 10 μg/ml, 10 μM SPC, 8 hours): 69% | Inhibition (%) of inflammatory reaction (ear edema, ear weight) ([2]; 0.3% in acetone, 20 μl on the ear at 1 hour and 6 hours after TPA, measured at 24 hours): 84% | inhibition of TPA-induced inflammatory reactions, ear edema and MPO activity (in words) ([2]; 0.3% topical, compared with hydrocortisone): significantly inhibited | Inhibition (%) (MPO inhibition) ([2]; value in brackets, 0.3% in acetone, 20 μl on the ear at 1 hour and 6 hours after TPA, MPO activity of ear at 24 hours): 78%
